Values quoted from earlier work as cited in patent US20150283066A1, “VAGINAL DANAZOL COMBINED WITH NON STEROIDAL ANTI INFLAMMATORY DRUGS (NSAIDS) COMPOSITIONS” (MEDIGLOBE LTD, priority 2011, published 2015).

Details: literature (University of Helsinki); stated jointly for NSAIDs and tranexamic acid

**Q.** Which “reduction of menstrual blood loss” value does the source give for `NC[C@H]1CC[C@H](C(=O)O)CC1` [tranexamic acid] here?
**A.** Its value is 20-60%.
